Assay results as given in patent US10000535B2, “Template-fixed peptidomimetics” (POLYPHOR LTD., priority 2007, dated 2018).
Non-standard residues stand in square brackets, D forms with d. Residues, ends and D or L forms follow the SMILES beside them. Aze = O=C(O)[C@@H]1CCN1

Assays:
Assay in all cases: Selectivity calcium flux assay, chemokine receptor panel
Assay type in all cases: cell-based
Settings in all cases: at 10 μM
CXCR1 = target: T1, CXCR1 (Homo sapiens, UniProt P25024)
T1 sequence (P25024 1-350): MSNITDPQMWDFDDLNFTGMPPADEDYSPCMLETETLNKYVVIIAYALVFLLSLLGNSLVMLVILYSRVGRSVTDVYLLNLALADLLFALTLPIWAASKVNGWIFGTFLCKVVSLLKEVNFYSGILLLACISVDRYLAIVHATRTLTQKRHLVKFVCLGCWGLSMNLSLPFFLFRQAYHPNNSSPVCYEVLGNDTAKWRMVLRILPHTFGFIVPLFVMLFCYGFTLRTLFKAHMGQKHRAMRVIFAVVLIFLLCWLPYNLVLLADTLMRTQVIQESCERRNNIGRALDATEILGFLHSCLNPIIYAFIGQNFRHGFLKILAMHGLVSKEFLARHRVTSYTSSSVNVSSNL
Procedure: (§1) Selectivity was measured using the calcium flux assay on a panel of human chemokine receptor bearing cell lines (CCR1, CCR2, CCR3, CCR4, CCR5, CCR6, CCR7, CCR8, CCR9, CCR10, CXCR1, CXCR2, CXCR2, CXCR4, CXCR6 and CXCCR1) using the same method as above

CCR4 = target: T2, CCR4 (Homo sapiens, UniProt P51679)
T2 sequence (P51679 1-360): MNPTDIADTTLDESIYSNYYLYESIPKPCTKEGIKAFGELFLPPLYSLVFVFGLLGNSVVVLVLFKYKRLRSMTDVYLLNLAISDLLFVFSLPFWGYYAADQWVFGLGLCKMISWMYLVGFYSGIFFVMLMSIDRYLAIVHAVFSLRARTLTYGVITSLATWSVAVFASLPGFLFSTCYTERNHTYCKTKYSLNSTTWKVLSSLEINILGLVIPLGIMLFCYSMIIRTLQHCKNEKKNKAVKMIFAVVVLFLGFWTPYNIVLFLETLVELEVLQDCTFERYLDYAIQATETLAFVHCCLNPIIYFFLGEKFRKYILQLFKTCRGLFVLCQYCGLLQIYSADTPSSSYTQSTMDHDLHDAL
Procedure: as §1

CCR5 = CCR5 (Homo sapiens, UniProt P51681)
CCR5, sequence (P51681 whole entry): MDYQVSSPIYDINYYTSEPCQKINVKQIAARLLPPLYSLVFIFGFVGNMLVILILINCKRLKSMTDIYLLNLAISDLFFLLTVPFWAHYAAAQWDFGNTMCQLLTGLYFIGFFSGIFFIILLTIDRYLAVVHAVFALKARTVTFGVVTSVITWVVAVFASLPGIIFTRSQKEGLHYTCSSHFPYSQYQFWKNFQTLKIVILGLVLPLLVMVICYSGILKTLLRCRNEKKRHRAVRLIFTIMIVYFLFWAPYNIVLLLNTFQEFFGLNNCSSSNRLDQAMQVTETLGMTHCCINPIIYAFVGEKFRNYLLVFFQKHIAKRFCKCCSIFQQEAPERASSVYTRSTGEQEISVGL
Procedure: as §1

CCR9 = target: T3, CCR9 (Homo sapiens, UniProt P51686)
T3 sequence (P51686 1-369): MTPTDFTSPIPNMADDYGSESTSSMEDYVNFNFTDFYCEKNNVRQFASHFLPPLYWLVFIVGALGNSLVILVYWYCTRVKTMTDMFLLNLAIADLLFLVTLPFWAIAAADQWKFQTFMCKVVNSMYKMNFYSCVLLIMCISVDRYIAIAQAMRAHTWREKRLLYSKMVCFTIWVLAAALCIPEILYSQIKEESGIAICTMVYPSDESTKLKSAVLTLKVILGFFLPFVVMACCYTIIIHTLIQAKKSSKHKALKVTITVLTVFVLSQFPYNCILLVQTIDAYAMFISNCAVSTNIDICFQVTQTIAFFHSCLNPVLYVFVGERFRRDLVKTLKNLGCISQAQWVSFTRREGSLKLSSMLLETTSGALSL
Procedure: as §1

CXCR2 = target: T4, CXCR2 (Homo sapiens, UniProt P25025)
T4 sequence (P25025 1-360): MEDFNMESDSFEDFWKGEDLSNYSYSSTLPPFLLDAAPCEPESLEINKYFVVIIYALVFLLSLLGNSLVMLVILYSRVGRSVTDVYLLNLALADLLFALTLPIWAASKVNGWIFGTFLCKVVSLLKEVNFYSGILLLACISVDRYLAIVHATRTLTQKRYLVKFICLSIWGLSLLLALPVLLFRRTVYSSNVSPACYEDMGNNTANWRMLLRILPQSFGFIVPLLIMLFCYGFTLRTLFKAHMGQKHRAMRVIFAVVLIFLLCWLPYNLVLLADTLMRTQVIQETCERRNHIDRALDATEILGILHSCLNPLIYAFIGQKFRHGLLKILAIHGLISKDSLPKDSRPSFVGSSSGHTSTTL
Procedure: as §1

CXCR4 chemokine receptor = CXCR4 chemokine receptor (Homo sapiens, UniProt P61073)
CXCR4 chemokine receptor, sequence (P61073 whole entry): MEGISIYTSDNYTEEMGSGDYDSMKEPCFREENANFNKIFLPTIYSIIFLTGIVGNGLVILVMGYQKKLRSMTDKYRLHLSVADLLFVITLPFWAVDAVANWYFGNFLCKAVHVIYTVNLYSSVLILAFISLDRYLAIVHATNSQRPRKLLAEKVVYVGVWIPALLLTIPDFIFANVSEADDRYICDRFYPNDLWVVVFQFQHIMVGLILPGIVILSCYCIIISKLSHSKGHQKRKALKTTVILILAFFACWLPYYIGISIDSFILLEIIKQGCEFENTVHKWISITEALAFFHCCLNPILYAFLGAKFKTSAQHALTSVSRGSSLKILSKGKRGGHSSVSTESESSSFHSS
Procedure: as §1

CXCCR1 = target: T5, CXCCR1 (Homo sapiens, UniProt P49238)
T5 sequence (P49238 1-355): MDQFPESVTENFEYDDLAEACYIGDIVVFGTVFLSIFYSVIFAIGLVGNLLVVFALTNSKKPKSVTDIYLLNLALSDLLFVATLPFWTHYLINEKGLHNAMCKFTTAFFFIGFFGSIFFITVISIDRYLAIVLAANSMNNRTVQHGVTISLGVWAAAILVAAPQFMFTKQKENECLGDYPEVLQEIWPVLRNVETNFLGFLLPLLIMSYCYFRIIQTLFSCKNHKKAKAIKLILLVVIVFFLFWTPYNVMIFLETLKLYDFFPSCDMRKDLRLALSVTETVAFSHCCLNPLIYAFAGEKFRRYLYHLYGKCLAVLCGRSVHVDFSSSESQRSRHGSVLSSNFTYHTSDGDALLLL
Procedure: as §1

N=C(N)NCCC[C@@H]1NC(=O)[C@H](Cc2c[nH]c3ccccc23)NC(=O)[C@H](Cc2ccc(O)cc2)NC(=O)[C@@H]2CCN2C(=O)[C@H]2CCCN2C(=O)CNC1=O [Example 15] (cyclo(YWRG[dP][Aze]))
highly selective: selectivity against CXCR1 (CXCR1) | selectivity against CCR4 (CCR4) | selectivity against CCR5 (CCR5) | selectivity against CCR9 (CCR9) | selectivity against CXCR2 (CXCR2) | selectivity against CXCR4 chemokine receptor (CXCR4 chemokine receptor) | selectivity against CXCCR1 (CXCCR1)

C[C@@H]1NC(=O)[C@H](CCCNC(=N)N)NC(=O)[C@H](Cc2c[nH]c3ccccc23)NC(=O)[C@H](Cc2ccc(O)cc2)NC(=O)[C@@H]2CCN2C(=O)[C@H]2CCCN2C1=O [Example 16] (cyclo(YWRA[dP][Aze]))
highly selective: selectivity against CXCR1 (CXCR1) | selectivity against CCR4 (CCR4) | selectivity against CCR5 (CCR5) | selectivity against CCR9 (CCR9) | selectivity against CXCR2 (CXCR2) | selectivity against CXCR4 chemokine receptor (CXCR4 chemokine receptor) | selectivity against CXCCR1 (CXCCR1)
